Measurements reported in patent publication US20060111288A1, “Peripheral benzodiazepine receptor independent superoxide generation” (priority 2004, published 2006).

Columns and labels:
HL60 leukaemia cells [1] = assay: Mitochondrial membrane potential depolarisation (DiOC6(3) fluorescence, flow cytometry); type: cell-based, human
Experimental: (§1) HL60 promyelocytic leukaemia, Jurkat T cell leukaemia cells lacking the PBR,(18) (19) (kindly provided by Dr D. E. Banker and Dr F. Applebaum, The Fred Hutchinson Cancer Research Center, USA), and BV173 leukaemia cells were maintained in exponential suspension cultures in PPMI 1640 medium supplemented with 10% fetal calf serum, 5 mM glutamine, 100 μg/ml streptomycin and 100 U/ml penicillin. Cells were grown in a humidified atmosphere of 5% CO2/95% air at 37° C. PK11195 was dissolved in ethanol at a stock concentration of 8.7 mg/ml, and added to cells at a 75 μM final concentration for 4 hours; vehicle alone was also used in medium.
(§2) A Becton Dickinson FACScan (Oxford) was used to acquire 10,000 events using forward and scatter detectors with logarithmic amplification. Lymphoid enriched gates were defined. Corresponding DiOC6(3) or CMH2DCFDA fluorescence was analysed using the FL1 (530 nm) band pass filter. Propidium iodide or ethidium fluorescence were analysed using the FL3 (620 nm) band pass filter. List mode Data was analysed using WINMDI 2.8. Fluorescence microscopy was performed using a Zeiss Axioskop four colour florescence microscope with digital capture via a computer running IPLab Spectrum software.
(§3) Cells were incubated for 20 minutes at 37° C. in the dark with the cationic lipophillic (amphipathic) probe DiOC6(3) (80 nM), then counter stained for 10 minutes with propidium iodide (20 μg/ml). DiOC6(3) is sequestered within the mitochondrial matrix due to the inner membrane potential (ΔΨm), according to the Nernst equation, dissipation leading to a reduction in mitochondrial retention and decreased cellular DiOC6(3) fluorescence. Collapse of ΔΨm was prevented by incubating cells for 30 minutes with 50 μM bongkrekic acid. Events with increased propidium iodide fluorescence were subtracted, by gating, from the DiOC6(3) histograms to eliminate dead cells, with loss of plasma membrane integrity. Dose-response curves used the calculating the proportion of DiOC6(3) low cells as the dependent variable on the ordinate. To measure MPT directly, cells were incubated with 1 μM calcein AM for 30 minutes, followed by 1 mM […]. Cobalt quenches calcein fluorescence, but cannot traverse an intact inner mitochondrial membrane to enter the mitochondrial matrix, to which calcein equilibrates. Opening of the PTPC allows cobalt to enter, reducing calcein fluorescence.

DoHH2 cells = assay: Apoptosis induction in the presence and absence of the ROS scavenger MnTBAP; type: cell-based; conditions: 24, 48, 72 hr, 1000 micromolar MPTP, 100 micromolar PK11195, 50 micromolar HA14-1, FIG. 5
Experimental: DoHH2 cells, a lymphoma cell line, were treated with MPTP, PK11195 and HA14-1 in the presence and absence of MnTBAP, a scavenger of ROS. […] MnTBAP inhibited MPTP-induced and PK11195-induced apoptosis, but not apoptosis induced by HA14-1. The three columns in each lane represent three time courses (L to R: 24 hr, 48 hr and 72 hr). […] The induction of apoptosis at the same time points as a result of treatment with 1000 micromolar MPTP is shown in lane “1000”.
The blockade of MPTP induction of apoptosis by MnTBAP parallels that of PK11195.
DoHH2 cells, a lymphoma cell line with high levels of the […] protein Bcl-2 due to a translocation between chromosome 14 and 18 (where the Bcl-2 gene is located), were exposed to MPTP, PK11195 and HA 14-1 in the presence and absence of the mitochondrial ROS scavenger, MnTBAP.

leukaemia cells = assay: Superoxide generation (dihydroethidium to ethidium fluorescence); type: cell-based
Experimental: as §2
(§4) O2^−· was detected by incubating cells for 15 minutes in 5 μM dihydroethidium, which is oxidized to ethidium. To test the effect of O2^−· […] on O2^−· generation, cells were treated with 100 μM MnTBAP for 45 minutes. Hydrogen peroxide was detected by loading cells for 30 minutes with 5 μM CM-H2DCFDA, and its formation inhibited by preincubation with 500 U/ml catalase for 30 minutes (21). Dose-response curves for CM-H2DCFDA used the calculated proportion of CM-H2DCFDA high cells as the dependent variable.

HL60 leukaemia cells [2] = assay: Direct measurement of MPT by calcein/cobalt quenching; type: cell-based, human; conditions: calcein AM plus cobalt, FIG. 1D/1E
Experimental: as §3

[3] = test system: peripheral benzodiazepine receptor (PBR); conditions: references 1, 2; cited from earlier work
HL60 cells = assay: Hydrogen peroxide generation (CMH2DCF fluorescence); type: cell-based, human
Experimental: as §2, §4

BV173 leukaemia cells = assay: Hydrogen peroxide generation (CMH2DCF fluorescence) in PBR-positive cells; type: cell-based; conditions: PBR expressed, FIG. 3
Experimental: as §1, with “medium. O2^−· was detected by incubating cells for 15 minutes in 5 μM dihydroethidium, which is oxidized to ethidium. […] Hydrogen peroxide was detected by loading cells for 30 minutes with 5 μM CM-H2DCFDA, and its formation inhibited by preincubation with 500 U/ml catalase for 30 minutes (21). Dose-response curves for CM-H2DCFDA used the calculated proportion of CM-H2DCFDA high cells as the dependent variable.” for “medium.”

[4] = test system: primary chronic lymphatic leukaemia cells; assay: Apoptosis induction in primary leukaemia cells; type: cell-based; conditions: primary chronic lymphatic leukaemia cells (higher NADPH oxidase than normal cells)
[5] = test system: normal, non-malignant lymphocytes; assay: Apoptosis induction in normal lymphocytes; type: cell-based
[6] = test system: Jurkat T cell leukaemia cells; assay: Hydrogen peroxide generation (CMH2DCF fluorescence) in PBR-negative cells; type: cell-based; conditions: PBR not expressed, FIG. 3
Experimental: as §1, with “medium. O2^−· was detected by incubating cells for 15 minutes in 5 μM dihydroethidium, which is oxidized to ethidium. […] Hydrogen peroxide was detected by loading cells for 30 minutes with 5 μM CM-H2DCFDA, and its formation inhibited by preincubation with 500 U/ml catalase for 30 minutes (21). Dose-response curves for CM-H2DCFDA used the calculated proportion of CM-H2DCFDA high cells as the dependent variable.” for “medium.”

## CO[C@H](C/C=C\C=C\CC/C=C/C[C@H](C)/C=C/C(=C\C(=O)O)CC(=O)O)/C(C)=C\C=C(/C)C(=O)O [BA, Bongkrekic acid]
HL60 leukaemia cells [1]; pre-treatment with 50 μM bongkrekic acid for 30 minutes, FIG. 1C
  effect of inhibitor on PK11195 mediated mitochondrial depolarisation: prevented

## CCOC(=O)C1=C(N)Oc2ccc(Br)cc2C1C(C#N)C(=O)OCC (centres unmarked) [HA14-1]
DoHH2 cells
  effect of MnTBAP on apoptosis induced by the compound: not blocked

## CN1CC=C(c2ccccc2)CC1 [MPTP, 1-methyl-4-phenyl-1,2,3,6-tefrahydropyridine]
DoHH2 cells
  effect of MnTBAP on apoptosis induced by the compound: inhibited

## O=C(O)c1ccc(C2=C3C=CC(=N3)C(c3ccc(C(=O)O)cc3)=c3ccc([nH]3)=C(c3ccc(C(=O)O)cc3)c3ccc([n-]3)C(c3ccc(C(=O)O)cc3)c3ccc2[n-]3)cc1.[Cl-].[Mn+3] (centres unmarked) [MnTBAP, Manganese (III) tetrakis (4-benzoic acid) porphyrin chloride]
HL60 leukaemia cells [1]; presence vs absence of MnTBAP, FIG. 4C
  effect on rate of PK11195 induced mitochondrial depolarisation (rate of reduction of DiOC6(3) fluorescence): Reduction in the rate of inner mitochondrial membrane depolarisation
Leukaemia cells; 100 μM MnTBAP, FIG. 4B
  effect on PK11195 induced increase in ethidium fluorescence: inhibited

## CCC(C)N(C)C(=O)c1cc2ccccc2c(-c2ccccc2Cl)n1 (centres unmarked) [PK11195, 1-(2-chlorophenyl)-N-methyl-N-methyl-N-(1-methylpropyl)-isoquinoline carboxamide]
HL60 leukaemia cells [2]
  mitochondrial calcein fluorescence (MPT, open PTPCs): quenched
DoHH2 cells
  effect of MnTBAP on apoptosis induced by the compound: inhibited
HL60 leukaemia cells [1]; PK11195 treated
  time until reduction in DiOC6(3) fluorescence is detectable: ≤ 3 h
HL60 leukaemia cells [1]; PK11195 treated vs control, FIG. 1A/1B
  DiOC6(3) fluorescence (collapse of mitochondrial ΔΨm): reduction in DiOC6(3) fluorescence
[3]
  binding affinity to the PBR: nanomolar
HL60 cells; HL60 cells, concentration dependent, FIG. 2A
  concentration range in which CMH2DCF fluorescence increased: 50 to 100 µM
BV173 leukaemia cells
  CMH2DCF fluorescence (generation of H202): increase in CMH2DCF fluorescence
Leukaemia cells; following PK11195 treatment vs control, FIG. 4A
  ethidium fluorescence (O2−· generation): early increase in ethidium fluorescence
[4]
  induction of apoptosis: induces apoptosis
[5]
  induction of apoptosis: does not do so
[6]
  CMH2DCF fluorescence (generation of H202): increase in CMH2DCF fluorescence

## catalase
HL60 cells; HL60 cells preincubated with catalase 500 U/ml, FIG. 2B
  effect on PK11195 induced increase in CMH2DCF fluorescence: inhibited
